This note sets out measurements from patent US10800790B2, “Sesquiterpenoid STAT3 inhibitors” (University of Hawaii, priority 2013, dated 2020).

The test system of assay [1] is U251MG glioblastoma cells. Briefly: CyQuant cell viability/proliferation assay, U251MG. To be noted: Table 1/FIG. 2 numbering. In kind it is cell-based, human. The protocol:
The cell viability assay was performed as previously reported (Zhang X, et al. (2010)). Briefly, a 10 millimolar concentration stock solution in dimethylsulfoxide (DMSO) of the tested molecule was first prepared. Next, the stock solution was diluted down to various working solutions in water. Thus, a formulation of the tested compound in a DMSO/water mixture was used to test for cell viability. (A novel small-molecule disrupts STAT3 SH2 domainphosphotyrosine interactions and STAT3-dependent tumor processes, Biochem Pharmacol 79:1398-1409; Zhao W, Jaganathan S, & Turkson J (2010), A cell-permeable STAT3 SH2 domain mimetic inhibits STAT3 activation and induces antitumor cell effects in vitro. J Biol Chem. 285:35855-35865). Cells (U251MG, MDA-MB-231 or NIH3T3) were obtained from ATCC (Manassas, Va.) and were cultured in 96-well plates at 2,000 cells per well for 24 h and were treated with compounds (5 micromolar concentration) for 72 h. Cell viabilty was determined using CyQuant assay, according to the manufacturer's (Invitrogen, CA, USA) instructions. Relative viability of the treated cells was normalized to the DMSO-treated control cells.

Assay [2] deals with T1, STAT3 (NIH3T3/v-Src nuclear extracts) (Mus musculus, UniProt P42227).
T1 construct: nuclear extracts prepared from v-Src-transformed mouse fibroblasts (NIH3T3/v-Src) containing active STAT3; endogenous in cells; host or cells: NIH3T3/v-Src mouse fibroblasts (nuclear extract)
As to the kind of experiment: In vitro STAT3 DNA-binding activity/EMSA, nuclear extracts incubated with compound. To be noted: 5 micromolar, 30 min at room temperature. In kind it is biochemical. The protocol: To further determine the effects of the bioactive agents on STAT3 activity, nuclear extracts prepared from v-Src-transformed mouse fibroblasts (NIH3T3/v-Src) containing active STAT3 were directly incubated with 5 micromolar compounds for 30 min at room temperature prior to performing STAT3 DNA-binding activity in vitro with EMSA analysis. […] These studies indicate that agents directly interact with STAT3 and disrupt STAT3:STAT3 dimers, thereby inhibiting its DNA-binding activity.
Data are representative of 2-3 independent determinations.
Nuclear extract preparations and DNA-binding/electrophoretic mobility shift assay (EMSA) were carried out as previously described (Xu, supra). Nuclear extract preparations and DNA-binding activity/electrophoretic mobility shift assay (EMSA) were carried out as previously described. U251 MG and MDA-MB-231 cells culture were pretreated with different concentrations of the compounds for the indicated period and then harvested for nuclear extract preparation and DNA-binding assay with EMSA analysis. The ^32P-labeled oligonucleotide probe used was hSIE (high-affinity sis-inducible element) from the c-fos gene, m67 variant (5′-[…]-3′) that binds STAT3. Except where indicated, nuclear extracts were pre-incubated with compound for 30 min at room temperature prior to incubation with the radiolabeled probe for 30 min at 30° C. before subjecting to EMSA analysis. Where appropriate, bands corresponding to DNA-binding activities were scanned and quantified for each concentration of compound using ImageJ and plotted as percent of control (vehicle) against concentration of compound, from which the IC50 values were derived.
(In EMSA bound probe runs differently from free probe, usually more slowly.)

The subject of assay [3] is U251MG cells. As to the kind of experiment: Colony survival assay, U251MG. In kind it is cell-based, human. The protocol:
The effect of the isolated or synthesized compounds in a colony survival assay was performed.
This assay was performed as previously reported (Xu, Y., supra). The assay was performed as previously reported. Briefly, cells were seeded as single-cell in 6-well plates (250 cells per well), treated once the next day with compounds for 72 h, and allowed to grow until large colonies were visible. Colonies were stained with crystal violet for 4 h and counted with FluorChem imaging system (Protein Simple, Santa Clara, Calif.).

For assay [4], the system named is U251MG cells. Briefly: Wound healing assay for migration. In kind it is cell-based, human. To be noted: 0-5 micromolar, 19 h, viability unaffected. On the procedure: Viable cell numbers at 19 h post-treatment were counted and are represented (right panel). Values are the mean and S.D. of 3-4 independent determinations. Data are representative of 3 independent determinations.
This assay was performed as previously reported. (Xu, Y., supra). Briefly, subconfluent cultures of U251MG cells in 6-well plates were wounded using pipette tips and treated with compound or vehicle (DMSO) and allowed to migrate into the denuded area over a 19 h period. The migration of cells was visualized at a 10× magnification using an Axiovert 200 inverted fluorescence microscope (Zeiss), with pictures taken using a mounted Canon Powershot A640 digital camera.

For a further assay, the system named is pSTAT1. As to the kind of experiment: Immunoblotting of EGF-induced pSTAT1 in NIH3T3/hEGFR. To be noted: 5 micromolar.
In another assay the test system is PTP1B. Briefly: Immunoblotting of PTP1B levels in U251MG cells. In kind it is cell-based, human. To be noted: 5 micromolar. The protocol: To further investigate into the mechanism of inhibition of STAT3 induction, effects on protein tyrosine […] (PTPs) were determined. […] Instead, the potent inhibitory effects of agents (5 micromolar) countered the robust pY705STAT3 induction by orthovanadate alone.
FIGS. 13A-13C show analyses of STAT1, STAT3, STAT5, Akt, Erk1/2, JAK2, SOCS, and PTP1B activation or STAT3-EGFR association and the effects of active hirsutinolides and sodium orthovanadate. (A-C) SDS-PAGE and Western blotting analysis of whole-cell lysates of equal total protein prepared from (A) EGF-stimulated NIH3T3/hEGFR cells pre-treated with the 5 micromolar of the designated agents for 24 h and probing for pY705STAT3, STAT3, pY701 STAT1, STAT1, pY694STAT5, STAT5 or GAPDH, or the human glioma, U251MG cells treated with 5 micromolar of the designated inhibitors for (B) 0-32 h and probing for pS-Akt, Akt, pErk1/2, Erk1/2, pJAK2, JAK2, SOCS3, PTP1B, pSTAT3, STAT3, β-actin or GAPDH; or (C) 3 h in the absence or presence of increasing concentration of Na3VO4 and probing for pSTAT3, STAT3 or GAPDH/.
(In general: In western blotting, separated proteins are transferred to a membrane and probed.)

Assay [5] concerns pY705STAT3 in U251MG or MDA-MB-231 cells. Briefly: Immunoblotting of pY705STAT3 in treated tumor cells.
Method: Positions of STATs:DNA complexes or proteins in gel are labeled; control lanes (0) represent nuclear extracts or whole-cell lysates prepared from 0.05% DMSO-treated cells. Data are representative of at least three to four independent determinations.
Lysates of equal total protein prepared in the lysis buffer (50 mM Hepes, pH 7.5, 150 mM NaCl, 2 mM EDTA, 1% Triton X-100, 0.1% SDS), were subjected to IP or Western blotting analysis. Antibodies against STAT3, pY705STAT3, Src, pY416Src, Erk1/2, and pT202/Y204Erk1/2 and GAPDH (Cell Signaling Technology, Danvers, Mass.), and anti-β-actin, and HSP105 (Santa Cruz Biotechnology, Dallas, Tex.) are from the designated sources.
Whole-cell lysates were prepared in boiling SDS sample loading buffer to extract total proteins, as reported previously. […] Nitrocellulose membranes were probed with primary antibodies, and the detection of horseradish peroxidase-conjugated secondary antibodies by enhanced chemiluminescence (Amersham) was performed. Antibodies used were monoclonal anti-pYSTAT3 and anti-STAT3 antibodies (Cell Signaling Technology, Danvers, Mass.).

T1 sequence (P42227 whole entry): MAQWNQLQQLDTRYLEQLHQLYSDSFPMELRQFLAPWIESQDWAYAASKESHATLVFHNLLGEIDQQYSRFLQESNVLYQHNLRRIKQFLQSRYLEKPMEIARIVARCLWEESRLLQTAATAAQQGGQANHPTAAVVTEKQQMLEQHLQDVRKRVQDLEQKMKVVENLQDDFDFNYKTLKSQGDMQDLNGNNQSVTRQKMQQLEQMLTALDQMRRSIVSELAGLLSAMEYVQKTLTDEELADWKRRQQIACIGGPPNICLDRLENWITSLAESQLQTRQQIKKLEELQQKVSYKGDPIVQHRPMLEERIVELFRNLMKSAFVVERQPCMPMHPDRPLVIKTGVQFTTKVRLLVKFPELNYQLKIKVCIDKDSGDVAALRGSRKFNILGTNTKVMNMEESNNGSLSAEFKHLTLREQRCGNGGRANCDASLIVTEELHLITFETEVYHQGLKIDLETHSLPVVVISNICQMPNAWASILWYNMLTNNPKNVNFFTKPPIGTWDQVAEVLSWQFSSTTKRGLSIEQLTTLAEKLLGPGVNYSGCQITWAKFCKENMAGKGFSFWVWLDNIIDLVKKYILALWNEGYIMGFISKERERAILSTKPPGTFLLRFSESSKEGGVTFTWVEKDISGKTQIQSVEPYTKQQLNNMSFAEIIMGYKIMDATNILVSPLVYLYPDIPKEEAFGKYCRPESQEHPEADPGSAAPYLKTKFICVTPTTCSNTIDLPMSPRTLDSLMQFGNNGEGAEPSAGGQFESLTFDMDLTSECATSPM
Method for pSTAT1: To determine the specificity of agents, mouse fibroblasts over-expressing the human EGF receptor (NIH3T3/hEGFR) were treated with the compounds and stimulated with EGF.

Take “(4S,6R,E)-4,7-dihydroxy-6,10-dimethyl-2-oxo-2,4,5,6,7,8,9,10-octahydro-7,10-epoxycyclodeca[b]furan-3-yl)methyl(E)-2-methylbut-2-enoate [Compound 22]”: the IC50 in assay [1] (72-h treatment, read-out: IC50 for the inhibition of U251MG cell viability) amounted to 2600 nM. The “Cell-type selectivity of growth inhibition, in words” value in assay [1] (U251MG versus other cells incl. NIH3T3) is “selective against the growth of human glioma U251MG cells”. The “Inhibition of STAT3 DNA-binding activity in vitro (EMSA)” value in assay [2] is listed as “strong inhibition”. In the assay with U251MG cells [3], the “Preferential effect on colony survival of U251MG and MDA-MB231 over MCF-7” value was found to be 2.5 fold. Further, the “Cell migration into the denuded area” value with U251MG cells [4] is recorded as “suppressed the numbers of U251 cells migrating into the denuded area”. In addition, the “Effect on EGF-induced pSTAT1” value in the assay on pSTAT1 is given as “no effects”. For the same substance, the “Effect on PTP1B levels” value with PTP1B was “little or no effects”. Moreover, in assay [5] (5 micromolar, 0-24 h, U251MG or MDA-MB-231, Table 1/FIG. 2 numbering), the “Effect on pY705STAT3 / STAT3 activity (immunoblot), in words” value is reported as “early inhibition at 15-30 min”. In addition, in assay [5] (U251MG, 5 micromolar compound, 10-300 micromolar orthovanadate, 3 h), the “pY705STAT3 inhibition in combination with sodium orthovanadate” value was “failed to overcome the inhibitory effect”.

Usually IC50 stands for the concentration that gives 50% inhibition.
